Test results from patent publication US20250312344A1, “COMBINATION THERAPIES USING PRMT5 INHIBITORS AND IMMUNE CHECKPOINT INHIBITORS FOR THE TREATMENT OF CANCER” (MIRATI THERAPEUTICS, INC., priority 2024, published 2025).

Test system: murine syngeneic cancer model with a homozygous deletion of the Mtap gene (Mtap^DEL)
Test: MRTX1719 + immune checkpoint blockade combination study, tumor growth in Mtap^DEL syngeneic model
Format: in vivo, BALB/c mice
Experimental: Immune-competent female BALB/c mice were implanted with murine syngeneic cancer model with a homozygous deletion of the Mtap gene (Mtap^DEL). Mouse health was monitored daily, and caliper measurements began when tumors were palpable. Tumor volume measurements were determined utilizing the formula 0.5×L×W2 in which L refers to length and W refers to width of each tumor. When tumors reached approximately 80 mm^3, animals were randomized to receive A) vehicle (0.5% methylcellulose (4000 cps)/0.2% Tween80 in water) and isotype control antibodies), B) immune checkpoint blockade antibodies targeting mouse-Ctla-4 and mouse-Pd-1 and vehicle, C) a PRMT5 inhibitor and isotype control antibodies, or D) the PRMT5 inhibitor and immune checkpoint blockade antibodies targeting mouse-Ctla-4 and mouse-Pd-1. Tumor volumes were measured two or three times per week (n=10/treatment group). Tumor Growth Inhibition (% TGI) was calculated using the formula: (1−(Final Drug Treated Tumor Volume−Initial Drug Treated Tumor Volume)/(Final Vehicle Treated Tumor Volume−Initial Vehicle Treated Tumor Volume))*100.
This example was conducted according to the study procedure described above. The PRMT5 inhibitor was MRTX1719 administered at 100 mg/kg once a day (QD). MRTX1719 used is as described herein.
The immune checkpoint antibody targeting mouse-Ctla-4 was dosed on Day 0 while the antibody targeting mouse-Pd-1 was dosed on Day 0, 3 and 6.

Cn1ncc(-c2ccc3c(=O)[nH]nc(CN)c3c2)c1-c1c(F)c(Cl)cc(OC2CC2)c1C#N [MRTX1719]
Tumor volume (Study Day 1, MRTX1719 100 mg/kg QD, aCTLA-4 Day 0, aPD-1 Day 0, 3, 6): 115 mm^3 | Tumor volume (Study Day 3, MRTX1719 100 mg/kg QD, aCTLA-4 Day 0, aPD-1 Day 0, 3, 6): 118 mm^3 | Tumor volume (Study Day 6, MRTX1719 100 mg/kg QD, aCTLA-4 Day 0, aPD-1 Day 0, 3, 6): 154 mm^3 | Tumor volume (Study Day 8, MRTX1719 100 mg/kg QD, aCTLA-4 Day 0, aPD-1 Day 0, 3, 6): 182 mm^3 | Tumor volume (Study Day 10, MRTX1719 100 mg/kg QD, aCTLA-4 Day 0, aPD-1 Day 0, 3, 6): 233 mm^3 | Tumor volume (Study Day 13, MRTX1719 100 mg/kg QD, aCTLA-4 Day 0, aPD-1 Day 0, 3, 6): 352 mm^3 | Tumor volume (Study Day 15, MRTX1719 100 mg/kg QD, aCTLA-4 Day 0, aPD-1 Day 0, 3, 6): 558 mm^3 | Tumor volume (Study Day 17, MRTX1719 100 mg/kg QD, aCTLA-4 Day 0, aPD-1 Day 0, 3, 6): 858 mm^3 | Tumor volume (Study Day 20, MRTX1719 100 mg/kg QD, aCTLA-4 Day 0, aPD-1 Day 0, 3, 6): 1010 mm^3 | Tumor volume (Study Day 22, MRTX1719 100 mg/kg QD, aCTLA-4 Day 0, aPD-1 Day 0, 3, 6): 1171 mm^3 | Tumor volume (Study Day 24, MRTX1719 100 mg/kg QD, aCTLA-4 Day 0, aPD-1 Day 0, 3, 6): 1312 mm^3 | Tumor volume (Study Day 27, MRTX1719 100 mg/kg QD, aCTLA-4 Day 0, aPD-1 Day 0, 3, 6): 1644 mm^3 | Tumor volume (Study Day −1 (before dosing), n=10/group): 82 mm^3 | % TGI (Day 17) (Tumor Growth Inhibition vs vehicle, Day 17, MRTX1719 100 mg/kg QD, aCTLA-4 Day 0, aPD-1 Day 0, 3, 6): 43.5%
